Data as given in patent US4127687A, “Prevention of fouling of marine structures such as boat hulls” (Rohm and Haas Company, priority 1976, dated 1978).
Values after ≈ are worked out from the molar mass of the structure shown.

Legend:
weed [1] = assay: Membrane Diffusion Raft Trials, weed control; assay type: in vivo, grass-like algal growth common in sea water; details: membrane test, average 15 to 16 weeks of immersion
Excerpt: (§1) 1). FIELD TESTS: - Membrane Diffusion Raft Trials
(§2) A specially constructed raft provides three types
(§3) a). Waterline Well illuminated, aerated
(§4) b). Flats Poorly illuminated deeper
(§5) A known quantity of the test compound is placed into a cylindrical plastic container whose open end is then covered with a membrane of known porosity; the complete unit is attached to the appropriate raft panel so that the poison can freely diffuse into the free water layer around it. Regular inspections, recording time and quantity of settlement, allow a life history of each membrane trial to be constructed. Each raft panel contains 35 compounds to be evaluated together with 4 standard poisons and 1 non-toxic membrane for control.
(§6) The behavior on the raft can thus be compared with that of the standard poisons and the non-toxic control. At normal loading a membrane over the standard poisons would be free from macro-fouling after six months immersion. Compounds showing selective effects against restricted groups of fouling organisms also show up by membrane testing.
(§7) After the completion of membrane tests the contents of all containers are checked visually for poison loss. An empty container indicates an unacceptably high solubility for long term effectiveness; where the poison loss is low the compound is tested in one of two ways depending on its performance against fouling.
(§8) In the membrane tests, the results of approximately 140 compounds evaluated appear in Table 1. The symbols "0" means no detactable effect, the symbol "+" indicates the compound is active against the given fouling organism, and the symbol "++" means that the compound appears to be effective over at least about a four month period for essentially preventing fouling activity by the given organism. In the Table, "weed" designates a grass-like algal growth common in sea water.
(§9) Membrane Test results are of an average 15 to 16 weeks of immersion,
(§10) ^a 0 = none, + = some, + + = effective.

barnacle = assay: Membrane Diffusion Raft Trials, barnacle control; assay type: in vivo, barnacles; details: membrane test, average 15 to 16 weeks of immersion
Excerpt: as §1, §2, §3, §4, §5, §6, §7, §8, §9, §10
^f The 1975 Spring settlement of barnacles was very meager and the […]

[2] = Amount of toxicant remaining in the test container after membrane diffusion raft tests; assay type: physicochemical; parameters: key: 0: empty or trace; +: some; + +: ample; details: after completion of membrane diffusion raft tests
Excerpt: as §5, §7
^b Amount of toxicants remaining in the test container after the
completion of the membrane diffusion raft tests: 0 = empty or trace, + =

[3] = Water solubility by UV spectrophotometric method; assay type: physicochemical; details: water, saturated solution; Table 1; read-out: Solubility by UV method
Description: The water solubilities of several isothiazolones were determined by UV spectrophotometric measurements of saturated aqueous solution of each compound in comparison with measurement of solutions of carefully prepared known concentration as outlined in the following example.
DETERMINATION OF SOLUBILITY OF 5-CHLORO-2-(4-FLUOROPHENYL)-4-METHYL-3-ISOTHIAZOLONE OF EXAMPLE 115
A sample of 5-chloro-2-(4-fluorophenyl)-4-methyl-3-isothiazolone (0.0406 g., 1.67 × 10^-4 mole) was dissolved in 50 ml. of methanol. A 5 ml. aliquot of the solution was diluted to 1000 ml. with deionized water, providing a solution of 1.67 × 10^-5 moles/liter concentration. An ultraviolet spectrum of this solution was run using a 10 cm. cell. The absorbance (As) at the wave length of maximum absorption (279 nm.) was 1.208. The molar absorptivity, AM, was calculated from the relationship
where b and c are path length or cell thickness and concentration respectively. Thus, AM was [formula]
Another sample of the compound (0.3-0.5 g.) was stirred vigorously in 40 ml. of deionized water for approximately 72 hrs. to give a saturated solution. The mixture was filtered through very fine filter paper (Whatman No. 50) to remove all suspended solid. Small portions of the filtrate were diluted with water by various factors until an approximately mid-scale absorbance was obtained upon running an ultraviolet spectrum. Such an absorbance was obtained at a dilution of 10. The absorbance was 0.975 in a 10 cm. cell. Using the value for AM obtained earlier, in the equation

Enteromorpha spores = assay: Laboratory toxicity test (Lab Bioassay) with Enteromorpha spores; assay type: in vivo; details: using Enteromorpha spores
Excerpt: Standard laboratory toxicity tests use Enteromorpha spores (zoospores or gametes) but Ectocarpus spores and barnacle nauplii may also be used. During the spore tests additional information on the control of bacterial and diatom slimes becomes available since these organisms are unavoidably introduced with the spore inoculum.
More detailed laboratory toxicity tests on promising compounds determine LD50 values as percentage saturated solution.
^c Using Enteromorpha spores.

weed [4] = assay: Paint panel / plaque tests against weed (Table 2); assay type: in vivo, grass-like algal growth common in sea water; parameters: key: high performance; medium performance; low performance; poor or unacceptable performance; details: April to November, 1975
Excerpt: (3) PAINT FORMULATION AND TEST PANEL OR PLAQUE TESTS
In order to evaluate the compound under practical conditions, weighed quantities of promising compounds are ground in standard volumes of a selected range of paint media and brushed out on plaques for marine immersion.
The anti-fouling paint formulations used is exemplified by the following: […]
The most preferred specific compounds were utilized in paints including vinyl chloride-vinyl acetate copolymers, chlorinated rubber, acrylic emulsions, and conventional paints with or without rosin to contain 20% by weight of biocide in the wet film and in some cases (Example 144 and Example 145) with concentrations of 5, 10, and 15% based on the wet film. Each of the compounds is also described in the membrane tests noted above. The paints were applied at normal thicknesses to plaques or panels of 10 centimeters by 10 centimeters which were immersed in various positions as described for the raft noted above. The compounds and results, as against weed, in the season April to November, 1975, are as follows: […]

Row | SMILES | Weed Control (weed [1]) | Barnacle Control (barnacle) | Contents at the end of test (amount of toxicants remaining in the test container) [2] | solubility [3] [µg/mL] | Lab Bioassay LD50 (Enteromorpha spores) | Effectiveness in paint CONV (conventional anti-fouling formulation) (weed [4]) | Effectiveness in paint CR (chlorinated rubber) (weed [4]) | Effectiveness in paint CR/R (chlorinated rubber/rosin) (weed [4]) | Effectiveness in paint EM (acrylic emulsion) (weed [4]) | Effectiveness in paint V (polyvinyl chloride-acetate) (weed [4]) | Effectiveness in paint V/R (vinyl/rosin) (weed [4])
1 | CCCCCCn1sc(Cl)c(Br)c1=O [Example 87] | + + | + + | 0 | 85 (≈ 285 µM) |  |  |  |  |  |  | 
2 | CCCCCCCCn1sc(Cl)c(C)c1=O [Example 101] | + + | + + | 0 | 38 (≈ 145 µM) |  |  |  |  |  |  | 
3 | CCCCCCn1scc(Br)c1=O [Example 47] | 0 | + + | + |  | > 1 percentage saturated solution |  |  |  |  |  | 
4 | Cc1c(Cl)sn(-c2ccccc2C(F)(F)F)c1=O [Example 128] | + + | 0 | + |  | 0.6 percentage saturated solution |  |  |  |  |  | 
5 | CCCCCCCCn1scc(Br)c1=O [Example 48] | 0 | 0 | + | 45 (≈ 154 µM) |  |  |  |  |  |  | 
6 | Cc1ccccc1-n1sc(Cl)c(C)c1=O [Example 118] | + + | 0 | + |  | 0.15 percentage saturated solution |  |  |  |  |  | 
7 | Cc1c(Cl)sn(-c2ccc(O)cc2)c1=O [Example 125] | + + | 0 | + + |  | > 1 percentage saturated solution |  |  |  |  |  | 
8 | Cc1c(Cl)sn(Cc2ccc(Cl)cc2)c1=O [Example 110] | + | + | + + | 34 (≈ 124 µM) |  |  |  |  |  |  | 
9 | O=c1cc(Cl)sn1C1CCCCC1 [Example 27] | 0 | + | + | 217 (≈ 997 µM) |  |  |  |  |  |  | 
10 | CCCCCCCCCCCCCCCCn1sc(Cl)c(Cl)c1=O [Example 66] | 0 | 0 | + + | 0.5 (≈ 1.27 µM) |  |  |  |  |  |  | 
11 | O=c1c(Cl)c(Cl)sn1-c1ccccc1 [Example 150] |  |  |  |  |  | p | p | h | p | m | h
12 | CCCCCCCCn1sc(Br)c(Br)c1=O [Example 95] | + + | 0 | 0 | 1.7 (≈ 4.58 µM) |  |  |  |  |  |  | 
13 | Cc1c(Cl)sn(-c2ccc(Cl)c(Cl)c2)c1=O [Example 134] | 0 | 0 | + + | 3.5 (≈ 11.9 µM) |  |  |  |  |  |  | 
14 | O=c1ccsn1-c1ccc(Cl)cc1 [Example 12] | + | + | + | 180 (≈ 850 µM) |  |  |  |  |  |  | 
15 | CCCCn1sc(Cl)c(Br)c1=O [Example 86] | + + | 0 | 0 | 1170 (≈ 4320 µM) |  |  |  |  |  |  | 
16 | CCCCCCn1sc(Cl)cc1=O [Example 15] | 0 | 0 | 0 | 900 (≈ 4100 µM) |  |  |  |  |  |  | 
17 | O=c1c(Cl)c(Cl)sn1CCc1ccccc1 [Example 146] |  |  |  |  |  | h | h | h | p | h | h
18 | Cc1c(Cl)sn(Cc2ccccc2)c1=O [Example 109] | + + | + | 0 | 100 (≈ 417 µM) |  |  |  |  |  |  | 
19 | Cc1c(Cl)sn(-c2ccc(Cl)cc2)c1=O [Example 147] |  |  |  |  |  | p | h | h | m | h | h
20 | CCCCCCCCCCCCn1sc(Cl)c(Cl)c1=O [Example 64] | 0 | + | + + | 0.1 to 3 (≈ 0.296 to 8.87 µM) |  |  |  |  |  |  | 
21 | CCCCCCCCCCCCCCn1sc(Cl)c(Cl)c1=O [Example 65] | 0 | 0 | + + | 0.9 (≈ 2.46 µM) |  |  |  |  |  |  | 
22 | O=c1c(Cl)c(Cl)sn1Cc1ccc(Cl)cc1 [Example 149] |  |  |  |  |  | h |  | h | h | l | h
23 | CCCCc1ccc(-n2sc(Cl)c(C)c2=O)cc1 [Example 121] | + + | + + |  |  | 0.13 percentage saturated solution |  |  |  |  |  | 
24 | Cc1c(Cl)sn(-c2ccccc2)c1=O [Example 111] | + + | + | + | 200 (≈ 886 µM) |  |  |  |  |  |  | 
25 | O=c1c(Cl)c(Cl)sn1Cc1ccccc1 [Example 148] |  |  |  |  |  | p | h | h | p | h | h
26 | O=c1ccsn1Cc1ccccc1 [Example 10] | 0 | 0 | 0 | 3000 (≈ 15700 µM) |  |  |  |  |  |  | 
27 | O=c1cc(Cl)sn1CCc1ccccc1 [Example 29] | + + | 0 | 0 | 240 (≈ 1000 µM) |  |  |  |  |  |  | 
28 | O=c1cc(Cl)sn1-c1ccccc1 [Example 33] | + + | + | + | 180 (≈ 850 µM) |  |  |  |  |  |  | 
29 | Cc1c(Cl)sn(C2CCCCC2)c1=O [Example 107] | 0 | + | + | 350 (≈ 1510 µM) |  |  |  |  |  |  | 
